Reference: US20240216248A1, “MICROBIAL GLYCOLIPIDS” (ANALYTICON DISCOVERY GMBH, priority 2021, published 2024)
Converted amounts (≈) assume the structure as drawn. One block for each compound: values may come before it.

Legend:
Byssochlamys nivea = experiment: Antimicrobial activity, micro broth dilution assay; format: cell-based; details: Paecilomyces niveus
Description: (§1) The antimicrobial activity of selected compounds was determined by micro broth dilution assay.

Latilactobacillus sakei = experiment: Antimicrobial activity, micro broth dilution assay; format: cell-based
Description: as §1

Penicillium chrysogenum = experiment: Antimicrobial activity, micro broth dilution assay; format: cell-based
Description: as §1

Escherichia coli = experiment: Antimicrobial activity, micro broth dilution assay; format: cell-based
Description: as §1

Penicillium roquefortii = experiment: Antimicrobial activity, micro broth dilution assay; format: cell-based
Description: as §1

Zygosaccharomyces bailii = experiment: Antimicrobial activity, micro broth dilution assay; format: cell-based
Description: as §1

Pseudomonas aeruginosa = experiment: Antimicrobial activity, micro broth dilution assay; format: cell-based
Description: as §1

Candida parapsilosis = experiment: Antimicrobial activity, micro broth dilution assay; format: cell-based; details: Lodderomyces parapsilosis
Description: as §1

Brettanomyces sp = experiment: Antimicrobial activity, micro broth dilution assay; format: cell-based
Description: as §1

Penicillium paneum = experiment: Antimicrobial activity, micro broth dilution assay; format: cell-based
Description: as §1

Staphylococcus aureus = experiment: Antimicrobial activity, micro broth dilution assay; format: cell-based
Description: as §1

Saccharomyces cerevisiae = experiment: Antimicrobial activity, micro broth dilution assay; format: cell-based
Description: as §1

[1] = test system: Aspergillus montevidensis; experiment: Antimicrobial activity, micro broth dilution assay; format: cell-based
Description: as §1

Aspergillus ruber = experiment: Antimicrobial activity, micro broth dilution assay; format: cell-based
Description: as §1

Neosartorya sp. = experiment: Antimicrobial activity, micro broth dilution assay; format: cell-based
Description: as §1

Bacillus subtilis = experiment: Antimicrobial activity, micro broth dilution assay; format: cell-based
Description: as §1

Leuconostoc carnosum = experiment: Antimicrobial activity, micro broth dilution assay; format: cell-based
Description: as §1

Penicillium expansum = experiment: Antimicrobial activity, micro broth dilution assay; format: cell-based
Description: as §1

Emulsification index E24 = format: physicochemical; details: surfactant solution 100 mg/liter; 2 ml hexadecane to 4 ml aqueous sample; measured 24 h later
Description: The emulsification index was determined by using a modification of a method described by Cooper and Goldenberg (APPLIED AND ENVIRONMENTAL MICROBIOLOGY, February 1987. p. 224-229). Surfactant solutions were prepared at 100 mg/liter. Emulsifier activity was measured by adding 2 ml of hexadecane to 4 ml of aqueous sample and vortexing at high speed for 1 min. Measurements were made 24 h later. The emulsion index (E24) was calculated using the equation E24(%)=[(height of emulsion layer)/(total height)]×100. Lutensol […] was used as positive control.

SMILES: CC(N)C(O)CCCCCCCCCCCCCCCCC(OC1OC(CO)C(O)C(O)C1O)C(C)O (stereo not drawn) [B]
MIC (Byssochlamys nivea): 500 µg/mL (≈ 933 µM)
MIC (Latilactobacillus sakei): 500 µg/mL (≈ 933 µM)
MIC (Penicillium chrysogenum): 125 µg/mL (≈ 233 µM)
MIC (Escherichia coli): 600 µg/mL (≈ 1120 µM)
MIC (Penicillium roquefortii): 250 µg/mL (≈ 467 µM)
MIC (Zygosaccharomyces bailii): 125 µg/mL (≈ 233 µM)
MIC (Pseudomonas aeruginosa): 250 µg/mL (≈ 467 µM)
MIC (Candida parapsilosis): 250 µg/mL (≈ 467 µM)
MIC (Brettanomyces sp): 125 µg/mL (≈ 233 µM)
MIC (Penicillium paneum): 500 µg/mL (≈ 933 µM)
MIC (Staphylococcus aureus): 250 µg/mL (≈ 467 µM)
MIC (Saccharomyces cerevisiae): 125 µg/mL (≈ 233 µM)
MIC [1]: 500 µg/mL (≈ 933 µM)
MIC (Aspergillus ruber): 500 µg/mL (≈ 933 µM)
MIC (Neosartorya sp.): 125 µg/mL (≈ 233 µM)
MIC (Bacillus subtilis): 250 µg/mL (≈ 467 µM)
MIC (Leuconostoc carnosum): > 500 µg/mL
MIC (Penicillium expansum): 250 µg/mL (≈ 467 µM)
E24 index (Emulsification index E24): 99%

SMILES: CC(O)C(CCCCCCCCCCCCCCCCC(O)C(C)NC(=O)CCC(=O)O)OC1OC(CO)C(O)C(O)C1O (stereo not drawn) [H]
E24 index (Emulsification index E24): 94%

SMILES: CC(N)C(O)/C=C/CCCCCCCCCCCCCCC(OC1OC(CO)C(O)C(O)C1O)C(C)O (stereo not drawn) [J]
E24 index (Emulsification index E24): 96%

SMILES: CC(O)C(CCCCCCCCCCCCCCCCC(O)C(C)OC1OC(CO)C(O)C(O)C1O)OC1OC(CO)C(O)C(O)C1O (stereo not drawn) [D]
E24 index (Emulsification index E24): 90%

Now from value to compound:

E24 index (Emulsification index E24): 65%
SMILES: CC(O)C(CCCCCCCCCCCCCCCCC(O)C(C)NC=O)OC1OC(CO)C(O)C(O)C1O (stereo not drawn) [Compound E]

E24 index (Emulsification index E24): 100%
SMILES: CC(O)C(CCCCCCCCCCCCCCCCC(O)C(C)NCC(=O)O)OC1OC(CO)C(O)C(O)C1O (stereo not drawn) [C]

E24 index (Emulsification index E24): 100%
SMILES: CC(O)C(O)CCCCCCCCCCCCCCCCC(OC1OC(CO)C(O)C(O)C1O)C(C)O (stereo not drawn) [F]

MIC (Byssochlamys nivea): > 500 µg/mL
MIC (Latilactobacillus sakei): 125 µg/mL (≈ 246 µM)
MIC (Penicillium chrysogenum): 125 µg/mL (≈ 246 µM)
MIC (Escherichia coli): 600 µg/mL (≈ 1180 µM)
MIC (Penicillium roquefortii): 125 µg/mL (≈ 246 µM)
MIC (Zygosaccharomyces bailii): 125 µg/mL (≈ 246 µM)
MIC (Pseudomonas aeruginosa): 600 µg/mL (≈ 1180 µM)
MIC (Candida parapsilosis): 500 µg/mL (≈ 985 µM)
MIC (Brettanomyces sp): 500 µg/mL (≈ 985 µM)
MIC (Penicillium paneum): 250 µg/mL (≈ 492 µM)
MIC (Staphylococcus aureus): 250 µg/mL (≈ 492 µM)
MIC (Saccharomyces cerevisiae): 250 µg/mL (≈ 492 µM)
MIC [1]: 250 µg/mL (≈ 492 µM)
MIC (Aspergillus ruber): 125 µg/mL (≈ 246 µM)
MIC (Neosartorya sp.): 500 µg/mL (≈ 985 µM)
MIC (Bacillus subtilis): 250 µg/mL (≈ 492 µM)
MIC (Leuconostoc carnosum): 500 µg/mL (≈ 985 µM)
MIC (Penicillium expansum): 250 µg/mL (≈ 492 µM)
E24 index (Emulsification index E24): 95%
SMILES: CC(N)C(O)CCCCCCCCCCCCCCC(OC1OC(CO)C(O)C(O)C1O)C(C)O (stereo not drawn) [Compound A]

E24 index (Emulsification index E24): 95%
SMILES: CC(N)C(O)C(O)CCCCCCCCCCCCCCCC(OC1OC(CO)C(O)C(O)C1O)C(C)O (stereo not drawn) [Compound I]
